Test results: patent US20180284123A1, “BARCODED RAPID ASSAY PLATFORM USEFUL FOR EFFICIENT ANALYSIS OF CANDIDATE MOLECULES AND METHODS OF MAKING AND USING THE PLATFORM” (California Institute of Technology, priority 2017, published 2018)

Columns and labels:
KRAS [1] = target: T1, KRAS (Homo sapiens, UniProt P01116); test: Multi-well ELISA, PCC ligand KRas EC50; assay type: binding; conditions: triplicate, KRas 0→300 μM, Hill coefficient=1
T1 construct: His6-tagged human KRas Isoform 4B (residues 1-169); His6; made in house; host or cells: E. coli BL21(DE3), PQE80 vector
T1 sequence (P01116 1-169 isoform P01116-2): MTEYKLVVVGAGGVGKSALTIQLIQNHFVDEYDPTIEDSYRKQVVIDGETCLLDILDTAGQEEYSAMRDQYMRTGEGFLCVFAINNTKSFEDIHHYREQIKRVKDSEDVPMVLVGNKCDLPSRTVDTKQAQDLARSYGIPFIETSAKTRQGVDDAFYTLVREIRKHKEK
Method: Measurement of PCC Ligand KRas EC50 Using the Multi-Well ELISA Technology
A 96-well Pierce Neutravidin Plate was washed with binding buffer (3×5 minutes at RT) before loading plate with a 1 μM solution of either blank (biotin-PEG5-NHAc) (singly) or biotinylated PCC ligand (in triplicate). The plate incubated for two hours before washing with binding buffer (3×5 minutes). Blocking buffer was added to each well and the plate blocked for one hour before undergoing washing with binding buffer (3×5 minutes). Each well was loaded with either binding buffer or KRas solution (0→300 μM), and the plate was incubated for 30 minutes. Plate washing with binding buffer (3×5 minutes) preceded incubating the plate with a (1000:1) dilution of 1° antibody (ab) rabbit anti-Ras (CST #3965) in ab buffer for thirty minutes. The plate was washed with binding buffer (3×5 minutes), loaded with a (2000:1) dilution of 2° ab goat anti-rabbit, HRP-linked ab (CST #7074) in ab buffer, and incubated for an additional thirty minutes. […] After quenching the enzymatic reaction with 1M H2SO4(aq) (100 μL) the plate was read at λ=450 nm within ten minutes. The data was double background corrected using the ab only absorbance and the dummy ligand absorbance, plotted using Prism GraphPad 7 (Sigmoidal 4PL mode with the Hill coefficient set=1), and an EC50 value was calculated.

KRAS [2] = target: T1, KRAS; test: Barcoded rapid assay microchip binding curves of FIG. 6A/6B; conditions: fitted curves of FIG. 6B, Hill coefficient set to 1, triplicate
Method: FIG. 6A is a picture of a barcoded rapid assay microchip (60) following its use for binding curve assays of KRAS to candidate ligands. […] EC50 binding curves of 15 candidate ligands were simultaneously generated against the target protein KRAS. Each microwell (ovals) represents a distinct concentration of KRAS that was added (values are given above each well). All 15 candidate ligands were measured in triplicate in each microwell.
FIG. 6B is a graph of the EC50 binding curves generated from the barcoded rapid assay microchip of FIG. 6A. Images of the barcoded rapid assay microchip were digitized using a fluorescence image scanner and plotted as binding curves (61) for each of the candidate ligands. All binding curves were fitted to Hill functions, with the Hill coefficient set to 1.
A series of peptide ligands that were identified as candidate binders to the protein KRas, using known literature methods, were prepared according to the methods of FIG. 3, and assembled into the individual microwells of the barcoded rapid assay microchip as illustrated in FIG. 4. […] Fluorescence imaging of the individual wells was then used to generate a fluorescence intensity, vs KRAS concentration, for each of the individual candidate ligands. […]

KRAS [3] = target: T1, KRAS; test: B-RAP surface immunofluorescent assay, PCC ligand KRas EC50; assay type: binding
Method: The barcode patterned microchip surface was partitioned into 16 individual microwells using a pre-fabricated PDMS slab. Individual biotinylated PCC candidates were complexed to specific SAC-DNA conjugates, combined into a cocktail, and then self-assembled, via DNA hybridization, onto designated barcode stripes (FIGS. 2-4). Incubation with a specific concentration of the target protein preceded incubation with a primary capture antibody and then a fluorophore-conjugated secondary detection antibody. During assay execution, each well represents a different target concentration or assay condition. Once developed, the fluorescence of the barcodes is digitized using a GenePix 4400A array scanner, with an excitation laser power optimized to a power level of 40% (60 W), which maximizes detection sensitivity while also minimizing signal saturation. Data extraction occurs using 10 μm radius circles, taken along the length of a barcode stripe. A fluorescence signal representing the average of all the pixels within a given circle is collected. A total of ten circles (data-blocks) are measured along a 180 μm span of the middle portion for each individual barcode lane in a given well. 10 μM KRas protein gave an average F635 of 47,868.7, with a standard deviation of 4154.53. 1 μM KRas protein gave an average F635 of 11437.6, with a standard deviation of 1602.202. 100 nM KRas protein gave an average F635 of 1780.6, with a standard deviation of 236.38. This illustrates the intensity across a stripe compared to the intensity from the data-block extraction. After extraction the data is background corrected. The background signal arises from (a) non-specific binding of the primary and secondary antibodies (independent of [KRas]), but can vary across different barcode stripes), and (b) non-specific binding of KRas protein ([KRas] dependent). Background (a) was assessed by measuring the average signal in the null protein well for each stripe. Background (b) was assessed by measuring the average fluorescence for the dummy ligand (Biotin* probe) that was in each well. The background subtracted data was then graphed in Graphpad Prism 7 and fitted to a sigmoidal curve (Hill coefficient=1).
Measurement of PCC Ligand KRas EC50 with the Barcode Rapid Assay Platform
Protein Incubation Buffer: Tris-buffered saline (TBS)+0.05% Tween20 (TBST)
A pre-fabricated PDMS template was aligned onto the DNA barcode microchip, and the microchip was taped into a 10 cm petri dish. The wells on the platform were wet with 50 μL PBST before filling with blocking buffer and placing into a 37° C. incubator for 1 hr. Concurrently, 40 μL 1% BSA in PBS solutions containing 750 nM of a SAC-DNA conjugate and 3.75 μM of one biotinylated PCC ligand or biotin-A20-Cy3 blank were prepared for each SAC-DNA conjugate. The biotinylated ligands were allowed to complex with the SAC protein for one hour before pooling the SAC-DNA-ligand solutions (final [SAC-DNA-ligand conjugates]=50 nM). The blocking buffer was aspirated and each well was loaded with the SAC-DNA-ligand conjugates cocktail for hybridization with the DNA barcode at 37° C. for one hour. The wells were washed with PBST (3×) before loading serially diluted solutions of KRas protein in protein buffer (0 to 400 μM). After shaking at RT for one hour, the wells were rinsed with PBST (5×), making sure to pipet up/down with the first addition of PB ST. A (100:1) dilution of CST rabbit anti-Ras Ab (#39655) in 1° ab buffer was added to each well before shaking at RT for one hour. After rinsing the wells with PBST (3×), the wells were loaded with a (200:1) dilution of Abcam goat anti-rabbit-Alexafluor 647 linked ab (ab150079) in 2° ab buffer before shaking at RT for one hour. A final rinse of the wells with PBST (3×) proceeded peeling off the PDMS slab from the barcode microchip and dipping the barcode into the following solutions: PBS, (1:1) PBS: MQ H2O, MQ H2O (2×). […]

EC50 (KRAS [1]): 3 ± 4.9 µM
EC50 (KRAS [2]): 6.29 µM
Avg F635, Full Centroid (KRAS [3]; 10 μM KRas well of plate #1, pixel by pixel, full centroid): 45500
Avg F635, Full Lane (KRAS [3]; 10 μM KRas well of plate #1, pixel by pixel, full lane): 41812
avg F635, Left Part Centroid (KRAS [3]; 10 μM KRas well of plate #1, pixel by pixel, left part of centroid): 39380
avg F635, Middle Part Centroid (KRAS [3]; 10 μM KRas well of plate #1, pixel by pixel, middle part of centroid): 47791
avg F635, Right Part Centroid (KRAS [3]; 10 μM KRas well of plate #1, pixel by pixel, right part of centroid): 49508
EC50 (KRAS [3]; 13-point KRas concentration series, each point in decaplicate, Hill coefficient=1): 3.86 ± 0.57 µM
SMILES: NC(=O)CC[C@@H]1NC(=O)[C@@H](N)Cc2cn(nn2)CCCC[C@@H](C(=O)NCCOCCOCCOCCOCCOCCC(=O)NCCNC(=O)CCCC[C@@H]2SC[C@@H]3NC(=O)N[C@@H]32)NC(=O)[C@H](Cc2ccc(O)cc2)NC(=O)[C@H](Cc2ccccc2)NC(=O)[C@H](CC(N)=O)NC(=O)[C@H](CC(=O)O)NC1=O (single isomer, unassigned) [Ligand L9b, QDNFY]
